Patent US20190255022A1, “WOUND-HEALING AGENT” (NIPPON CHEMIPHAR CO., LTD., priority 2016, published 2019)

System: rat pressure ulcer model
Experiment: Effect of compound A in rat pressure ulcer model
Type: in vivo
Conditions: for Number of days required for healing: 150 mg once a day until healing; for Number of days required for healing / wound area ratio: mean±standard error; for wound area ratio: 150 mg once a day
Experimental: The compound A was weighed in the required amount, and polyethylene glycol 400 (PEG400) was added to the compound to prepare liquids having final concentrations of the compound of 0.01, 0.1, and 1.0 w/v %. In order to prepare ointments having final concentrations of the compound of 0.005, 0.05, and 0.5 w/w %, PEG4000 melted by warming at 65° C. was added to the liquids, and the liquids were stirred until they solidified at room temperature to prepare ointments having concentrations of the compound of 0.005, 0.05, and 0.5 w/w %.
Pentobarbital sodium was intraperitoneally administered (50 mg/kg) to 8 weeks old Slc:SD rats, of which skins on the right third trochanter had been broadly depilated beforehand using an electric clipper and an electric shaver, 20 mg/kg of allobarbital was further intraperitoneally administered to anesthetize the rats, and the animals were fixed on wooden fixation plates in the prone position. Absorbent cotton was inserted between the femoral region and the fixation plate as a cushion, and a stainless steel bar (diameter 19 mm, length 50 cm) having a weight of 1.02 to 1.03 kg and attached with a rubber stopper (diameter 12 mm) was placed on the skin over the right third trochanter to give a pressure load (902.3 to 911.2 g/cm^2) for 24 hours^5). After 24 hours, the pressure load was eliminated, a 5% glucose solution was orally administered to the rats, and two days after the elimination of the pressure load, the necrotic skin was surgically removed under isoflurane anesthesia to prepare a pressure ulcer model. As for the methods of the experiments, Hidetoshi Hamamoto et al., Clinical Pharmacology and Therapy (Yakuri to Rinsho), 15:255-262, 2005, Effect of MRX-201 on Wound Healing Dermal Burns and Decubitus Ulcer in Rat was referred to.
After the preparation of the pressure ulcer model, the administration was performed once a day at a dose of 150 mg until healing was completed. The wound surface was cleaned with absorbent cotton dipped in physiological saline before the administration, and the ointment was applied to the whole wound surface with a spatula.
Wound area was measured once a day after the start of the administration of the test substance until healing was completed. By using the measured wound area, wound area ratio (%) based on the wound area before the start of the administration was calculated. The number of days of the period from the start of the administration to healing was calculated as number of days required for healing.
Homoscedasticity was examined by the Bartlett's method. When homoscedastic results were obtained, one-way layout analysis of variance was further performed, and when significant results were obtained, mean values were compared by the Tukey's method. When heteroscedastic results were obtained, Kruskal-Wallis H-test was performed, and when significant results were obtained, mean ranks were compared by the Tukey's method. For the Bartlett's method, one-way analysis of variance, and Kruskal-Wallis H-test, the statistical significance level was set at 5%, and for the Tukey's method, the statistical significance level was set at 5% and 1%.

`Cc1cc2c(CCc3sc(-c4ccc(C(F)(F)F)cc4)nc3C(C)C)noc2cc1OCC(=O)O` [compound A, [3-[2-[4-isopropyl-2-(4-trifluoromethyl)phenyl-5-thiazolyl]ethyl]-5-methyl-1,2-benzisoxazol-6-yl]oxyacetic acid] was tested, and the “number of the days required for healing compared with the vehicle-administered group” value (0.005% and 0.05% compound A-administered groups) was “significantly decreased”, the “Number of days required for healing” value (0.005% compound A ointment, n=10) was 20.1 ± 1.4 days and the wound area ratio (0.005% compound A ointment, day 1 of administration, n=10) was 100.0 ± 0.0%. The wound area ratio (0.005% compound A ointment, day 2 of administration, n=10) was 108.3 ± 3.1%, the wound area ratio (0.005% compound A ointment, day 3 of administration, n=10) was 108.9 ± 3.9% and the wound area ratio (0.005% compound A ointment, day 4 of administration, n=10) was 99.9 ± 3.5 %. It also gave a wound area ratio (0.005% compound A ointment, day 5 of administration, n=10) of 92.1 ± 3.7 %, a wound area ratio (0.005% compound A ointment, day 6 of administration, n=10) of 76.4 ± 5.5 % and a wound area ratio (0.005% compound A ointment, day 7 of administration, n=10) of 66.4 ± 4.7 %. The wound area ratio (0.005% compound A ointment, day 8 of administration, n=10) was 55.2 ± 4.8 %, the wound area ratio (0.005% compound A ointment, day 9 of administration, n=10) was 45.3 ± 4.3 % and the wound area ratio (0.005% compound A ointment, day 10 of administration, n=10) was 39.4 ± 4.1 %. The wound area ratio (0.005% compound A ointment, day 11 of administration, n=10) was 31.5 ± 3.3 %, the wound area ratio (0.005% compound A ointment, day 12 of administration, n=10) was 23.8 ± 2.4 % and the wound area ratio (0.005% compound A ointment, day 13 of administration, n=10) was 19.6 ± 2.3 %. It also gave a wound area ratio (0.005% compound A ointment, day 14 of administration, n=10) of 14.4 ± 2.5 %, a wound area ratio (0.005% compound A ointment, day 15 of administration, n=10) of 10.3 ± 2.1% and a wound area ratio (0.005% compound A ointment, day 16 of administration, n=10) of 7.1 ± 1.8 %. The wound area ratio (0.005% compound A ointment, day 17 of administration, rats except for the healed rats) was 4.4 ± 1.5 %, the wound area ratio (0.005% compound A ointment, day 18 of administration, rats except for the healed rats) was 4.9 ± 1.6^ % and the wound area ratio (0.005% compound A ointment, day 19 of administration, rats except for the healed rats) was 3.3 ± 1.5 %. The wound area ratio (0.005% compound A ointment, day 20 of administration, rats except for the healed rats) was 2.8 ± 1.5^ %, the “wound areas compared with the vehicle-administered group” value (0.005% compound A-administered group, from the day 4 of the administration) was “significantly smaller” and the “wound areas compared with the vehicle-administered group” value (0.05% and 0.5% compound A-administered groups, from the day 5 of the administration) was “significantly smaller”. The “Number of days required for healing” value (0.05% compound A ointment, n=10) was 19.7 ± 1.1 days, the wound area ratio (0.05% compound A ointment, day 1 of administration, n=10) was 100.0 ± 0.0% and the wound area ratio (0.05% compound A ointment, day 2 of administration, n=10) was 115.0 ± 2.8%. For the same compound, the wound area ratio (0.05% compound A ointment, day 3 of administration, n=10) was 113.6 ± 3.5%, the wound area ratio (0.05% compound A ointment, day 4 of administration, n=10) was 104.9 ± 3.1% and the wound area ratio (0.05% compound A ointment, day 5 of administration, n=10) was 95.1 ± 3.7 %. For the same compound, the wound area ratio (0.05% compound A ointment, day 6 of administration, n=10) was 84.4 ± 2.8%, the wound area ratio (0.05% compound A ointment, day 7 of administration, n=10) was 73.5 ± 2.7 % and the wound area ratio (0.05% compound A ointment, day 8 of administration, n=10) was 63.4 ± 3.1 %. It also gave a wound area ratio (0.05% compound A ointment, day 9 of administration, n=10) of 49.8 ± 4.2 %, a wound area ratio (0.05% compound A ointment, day 10 of administration, n=10) of 41.6 ± 3.9 % and a wound area ratio (0.05% compound A ointment, day 11 of administration, n=10) of 31.2 ± 3.1 %. For the same compound, the wound area ratio (0.05% compound A ointment, day 12 of administration, n=10) was 22.3 ± 3.6 %, the wound area ratio (0.05% compound A ointment, day 13 of administration, n=10) was 16.4 ± 4.0 % and the wound area ratio (0.05% compound A ointment, day 14 of administration, n=10) was 12.1 ± 3.7 %. The wound area ratio (0.05% compound A ointment, day 15 of administration, n=10) was 8.6 ± 3.2 %, the wound area ratio (0.05% compound A ointment, day 16 of administration, n=10) was 7.5 ± 3.3 % and the wound area ratio (0.05% compound A ointment, day 17 of administration, rats except for the healed rats) was 6.7 ± 3.2 %. For the same compound, the wound area ratio (0.05% compound A ointment, day 18 of administration, rats except for the healed rats) was 7.8 ± 3.8^ %, the wound area ratio (0.05% compound A ointment, day 19 of administration, rats except for the healed rats) was 5.4 ± 2.9^ % and the wound area ratio (0.05% compound A ointment, day 20 of administration, rats except for the healed rats) was 5.4 ± 3.2^ %. For the same compound, the “Number of days required for healing” value (0.5% compound A ointment, n=10) was 21.0 ± 1.2 days, the wound area ratio (0.5% compound A ointment, day 1 of administration, n=10) was 100.0 ± 0.0% and the wound area ratio (0.5% compound A ointment, day 2 of administration, n=10) was 119.6 ± 5.0%. It also gave a wound area ratio (0.5% compound A ointment, day 3 of administration, n=10) of 117.5 ± 5.0%, a wound area ratio (0.5% compound A ointment, day 4 of administration, n=10) of 109.5 ± 4.6% and a wound area ratio (0.5% compound A ointment, day 5 of administration, n=10) of 93.2 ± 4.3 %. It also gave a wound area ratio (0.5% compound A ointment, day 6 of administration, n=10) of 84.9 ± 4.3%, a wound area ratio (0.5% compound A ointment, day 7 of administration, n=10) of 77.0 ± 5.1% and a wound area ratio (0.5% compound A ointment, day 8 of administration, n=10) of 65.3 ± 4.4%. It also gave a wound area ratio (0.5% compound A ointment, day 9 of administration, n=10) of 56.0 ± 4.0%, a wound area ratio (0.5% compound A ointment, day 10 of administration, n=10) of 49.2 ± 3.9% and a wound area ratio (0.5% compound A ointment, day 11 of administration, n=10) of 39.7 ± 4.6%. For the same compound, the wound area ratio (0.5% compound A ointment, day 12 of administration, n=10) was 28.3 ± 3.4%, the wound area ratio (0.5% compound A ointment, day 13 of administration, n=10) was 19.6 ± 2.2 % and the wound area ratio (0.5% compound A ointment, day 14 of administration, n=10) was 15.5 ± 1.6 %. The wound area ratio (0.5% compound A ointment, day 15 of administration, n=10) was 8.0 ± 0.9 %, the wound area ratio (0.5% compound A ointment, day 16 of administration, n=10) was 5.6 ± 0.7 % and the wound area ratio (0.5% compound A ointment, day 17 of administration, rats except for the healed rats) was 3.7 ± 0.5 %. It also gave a wound area ratio (0.5% compound A ointment, day 18 of administration, rats except for the healed rats) of 2.2 ± 0.6 %, a wound area ratio (0.5% compound A ointment, day 19 of administration, rats except for the healed rats) of 2.2 ± 0.6 % and a wound area ratio (0.5% compound A ointment, day 20 of administration, rats except for the healed rats) of 1.6 ± 0.4 %. For the same compound, the exacerbation of wounds (from the day 1 to day 3 of the administration, a tendency) was “suppressed”.
